Assay results reported in patent US10765729B2, “Tumor antigen peptide” (Sapporo Medical University, priority 2014, dated 2020).
“And” between values parts separate entries of the source, which are not always exact repeats. Equal values may be shown once. Where no end group is shown, it is not given here.

Legend:
[1] = tested on: peripheral blood mononuclear cells derived from HLA-A*02:01-positive healthy individuals; experiment: CTL inducibility using human peripheral blood mononuclear cells, IFNγ ELISPOT; type: cell-based; conditions: peptide 20 μg/mL, IL-2 100 U/mL, about 2 weeks, FIGS. 39-43
Procedure: (§1) Subsequently, approximately 1×10^5 cells were plated in each well of a 96-well U bottom plate, and cultured at 37° C. under 5% CO2. At this time, human IL-2 and peptide were added at 100 U/mL and 20 μg/mL, respectively. The medium was exchanged every 3 or 4 days and an IFNγ ELISPOT assay was carried out after about 2 weeks. On the day before the assay, ELISPOT plates were treated with anti-IFNγ antibody, and on the day of assay, they were blocked with RPMI1640 medium containing 10% fetal calf serum at room temperature for about 2 hours. The human peripheral blood mononuclear cells in the culture were washed with an AIM-V medium containing 10% human-derived serum and plated in each well of the blocked ELISPOT plate. After culturing at 37° C. under 5% CO2 for 16 to 18 hours, the supernatant was removed and the ELISPOT plates were subjected to color development according to the attached protocol. The number of colored spots was measured with an ELISPOT analyzer manufactured by Cellular Technology Limited. […] In addition, black bars indicate the number of spots detected under peptide stimulation conditions, and white bars indicate the number of spots (controls) detected under no peptide pulse conditions.

[2] = tested on: peripheral blood mononuclear cells derived from HLA-A*24:02-positive healthy individuals; experiment: as above; type: cell-based; conditions: peptide 20 μg/mL, IL-2 100 U/mL, about 2 weeks, FIGS. 44, 45
Procedure: as §1

HLA-A*24:02 = HLA-A*24:02 (Homo sapiens, UniProt P04439, D101N/D140Y/D185E/E176V/E190D/F33S/G103R/G107R/I119L/I121M/I306V/K335N/L105A/L180Q/L300P/N151K/N90K/Q86E/Q94H/R106L/R138H/R89G/T104I/T345S/V100E/W191G/Y123F); type: binding
HLA-A*02:01 = molecular target: T1, HLA-A*02:01 (Homo sapiens, UniProt P04439, D140Y/D185E/D98H/E176V/E277Q/G131W/G231S/I119V/I121R/I166T/I218V/L300P/L318F/N151K/N90K/P208A/P217A/Q86G/Q94H/R138H/R169H/T345S); type: binding
T1 construct: T2 cells can usually only express a low level of empty MHC class I molecules on the cell surface; endogenous in cells; host or cells: T2-A24 cells (human lymphoblastoid T2 cells)

[3] = tested on: human colon cancer cell line (SW480); experiment: Detection of SP fraction by Hoechst 33342/PI flow cytometry; type: cell-based; conditions: verapamil final concentration 75 μM; Hoechst 33342 5.0 μM; FIG. 1
Procedure: 5% fetal calf serum (FCS (HyClone Laboratories))-supplemented DMEM (Sigma-Aldrich) medium was prepared as a medium and warmed at 37° C. Verapamil (Sigma-Aldrich) was adjusted to 50 mM and diluted to 5 mM using the 5% FCS-supplemented DMEM medium. Hoechst 33342 (Lonza) was adjusted to 250 μg/mL using the 5% FCS-supplemented DMEM medium. DNase I (Qiagen) was adjusted to 1 mg/mL using DDW and sterilized by filtration using a 0.2 μm filter.
A human colon cancer cell line (SW480 (ATCC)) was suspended in 4 mL of the 5% FCS-supplemented DMEM medium, and the number of cells was counted. Furthermore, the 5% FCS-supplemented DMEM medium was added so as to adjust the cell concentration to 10×10^6 cells/mL, thus giving a sample. Using part of the sample, dispensing was carried out; verapamil was not added to a main sample (verapamil(−) sample), and verapamil was added to a secondary sample so as to give a final concentration of 75 μM (verapamil(+) sample). Subsequently, the Hoechst 33342 solution was added to the verapamil(+) sample and the verapamil(−) sample so as to give a Hoechst 33342 final concentration of 5.0 μM. […]
First, cells in the verapamil(−) sample were analyzed, and cells in a cell group (side population (SP)) having low emission intensity compared with a main cell group (main population (MP)) were detected (FIG. 1).

T2-A24 cells = experiment: Cytotoxicity test (LDH release) of CTLs toward peptide-pulsed T2-A24 cells; type: cell-based, human; conditions: peptide pulse 20 μg/mL; E/T ratio 1, 3, 9; CTL induced by IV9; FIG. 10
Procedure: (§2) T2-A24 cells, SW480-SP, SW480-MP, and K562 HLA-class I-deficient leukemia cells (obtained from ATCC) were suspended in 10% FBS-supplemented RPMI at a cell concentration of 1×10^6 cells/mL. Washing was carried out three times with 10 mL of 10% FBS-supplemented RPMI.
(§3) T2-A24 cells were pulsed with IV9 peptide and HIV584-594 peptide as a positive control for T2-A24 cell binding, at a concentration of 20 μg/mL at room temperature for 1 hour. As a negative control, a group without peptide pulses was used. With regard to experimental group of T2-A24 cells, three groups were defined: [1] no peptide pulse, [2] HIV584-594 peptide pulse, and [3] IV9 peptide pulse. In addition, K562 was pulsed with IV9 peptide under the same conditions. Both SW480-SP and SW480-MP groups were used without peptide pulses. After the peptide pulse, the cells were washed twice with PBS. The cells of each group were plated on each well at 1×10^5 cells/100 μL.
(§4) Respective numbers of effector cells (CTLs) were plated on each well so that the effector/target ratio (E/T ratio) became 1, 3, and 9. Effector cells were plated as a spontaneous release well. To the maximum release well, 4% of NP-40-added PBS was added to the target cells so that the final concentration became 2%. […] After 10 minutes, fluorescence intensity of each well was measured by Terra Scan. Cytotoxic activity was calculated using the equation below. […]

SW480-MP = experiment: Cytotoxicity test (LDH release) of CTLs toward SW480-MP without peptide pulse; type: cell-based, human; conditions: CTL induced by IV9, FIG. 10
Procedure: as §2, §3, §4

With 4 (HLSVLFGHV) [compound 4] the “induction of peptide-specific CTLs from PBMC” value (“induction” for short) [1] was “able to induce peptide-specific CTLs”.
For 5 (SVLFGHVECL) [compound 5], the “induction” value [2] was “has CTL inducibility in both HLA-A02 type and HLA-A24 type subjects” and the “induction” value [1] was “able to induce peptide-specific CTLs”.
With 6 (KILCDRGAKL) [compound 6] the “induction” value [1] was “able to induce peptide-specific CTLs”.
With 8 (HFGLSELVAFYV) [compound 8] the “induction” value [2] was “has CTL inducibility in both HLA-A02 type and HLA-A24 type subjects” and the “induction” value [1] was “able to induce peptide-specific CTLs”.
9 (CYSLSGHTAL) [compound 9] was tested, and the “induction” value [1] was “able to induce peptide-specific CTLs”.
17 (SILCAKQLV) [compound 17] was tested, and the “MFI HLA-A24” value (HLA-A*24:02) was 1.3.
In the case of 20 (HVLMHMMLEA) [compound 20], the “MFI HLA-A24” value (HLA-A*24:02) is reported as 1.3.
With 23 (YLLLEPEGII) [compound 23] the “MFI HLA-A24” value (HLA-A*24:02) was 1.4.
With 28 (RIYPPQFHKV) [compound 28] the “MFI HLA-A02” value (HLA-A*02:01) was 1.4.
For 34 (FEVEDENMVL) [compound 34], the “MFI HLA-A24” value (HLA-A*24:02) was 1.4.
40 (QYVLKVTSV) [compound 40] was tested, and the “MFI HLA-A24” value (HLA-A*24:02) was 1.3.
With 41 (LLLNHGAARI) [compound 41] the “MFI HLA-A02” value (HLA-A*02:01) was 1.3.
For `COc1ccc(CCN(C)CCCC(C#N)(c2ccc(OC)c(OC)c2)C(C)C)cc1OC` (centres unmarked) [verapamil, Verapamil], the “SP cells in flow cytometry” value [3] was “SP cells disappeared”.
With “EADPTGHSY [HLA-A*02:01 Negative control, MAGE-1161-169 peptide as an HLA-A02-negative control, reference compound]” the “HLA-A*02:01 Negative control (MFI)” value (HLA-A*02:01) was 1.0.
For IYPPQFHKV [SEQ ID No. 3], the “cytotoxic activity of CTLs toward peptide-pulsed T2-A24 cells” value (T2-A24 cells) was “high cytotoxic activity” and the “cytotoxic activity of CTLs toward SW480-MP” value (SW480-MP) was “only a similar cytotoxic activity as [1] no peptide pulse group and [2] HIV peptide pulse group”.
For “RGYVYQGL [HLA-A*24:02 Negative control, reference compound]”, the “HLA-A*24:02 Negative control (MFI)” value (HLA-A*24:02) was 1.0.
In the case of “RYLRDQQLL [HLA-A*24:02 Positive control, HIV584-592 peptide as an HLA-A24-positive control, reference compound]”, the “HLA-A*24:02 Positive control (MFI)” value (HLA-A*24:02) is reported as 2.6 and 3.3 and 2.8.
